The record followed here is patent publication US11849726B2, “Microbicidal composition” (Lanxess Corporation, priority 2016, dated 2023).

Type in all cases: cell-based
The subject of test [1] is Staphylococcus aureus ATCC #6538. The experiment in a line: MIC / synergy index test in 96 well microtiter plates, Gram positive bacteria. The following applies: S. aureus ATCC #6538, contact time 24 hrs, 10% tryptic soy broth. The procedure:
(§1) Phenoxyethanol and Dipropylene glycol phenyl ether were evaluated for synergy by determining the synergy index (S.I.) of the combination. Synergy index was calculated based on minimum inhibitory concentrations (MIC) of two antimicrobial compounds (A and B) alone and in combinations. The MIC test were run in accordance with the method described in U.S. Pat. No. 9,034,905. The tests organisms were Gram negative bacteria (Pseudomonas aeruginosa ATCC #15442), Gram positive bacteria (Staphylococcus aureus ATCC #6538), and yeast (Candida albicans ATCC #10231) and mold (Aspergillus brasiliensis ATCC #16404). Contact time for the bacteria was 24 and 48 hours, yeast was 48 and 72 hrs, and 3 and 7 days for mold. The test was carried out in 96 well microtiter plates.
(§2) SI is calculated as follows: Ca/CA+Cb/CB=Synergy Index (“SI”) Wherein: • CA=concentration of compound A in ppm, acting alone, which produced an end point (MIC of Compound A). • Ca=concentration of compound A in ppm, in the mixture, which produced an end point. • CB=concentration of compound B in ppm, acting alone, which produced an end point (MIC of Compound B). • Cb=concentration of compound B in ppm, in the mixture, which produced an end point.
(§3) When the sum of Ca/CA and Cb/CB is greater than one, antagonism is indicated.

Test [2] has as its system Candida albicans ATCC #10231. The experiment in a line: MIC / synergy index test in 96 well microtiter plates, yeast. The following applies: C. albicans ATCC #10231, contact time 24 hrs, potato dextrose broth. As for the experimental part:
as §1, with “Contact time for the bacteria was 24 and 48 hours, yeast was 48 and 72 hrs, and 3 and 7 days for mold.” left out
as §2, §3

Test [3] concerns Aspergillus brasiliensis ATCC #16404. In words: MIC / synergy index test in 96 well microtiter plates, mold. The following applies: A. brasiliensis ATCC #16404, contact time 3 days, potato dextrose broth. As for the experimental part: as §1, §2, §3

For the compound `CC(CO)OCC(C)Oc1ccccc1` (stereo not drawn) [Dipropylene glycol phenyl ether], the “MIC of compound acting alone (CA / CB)” value in test [1] turned out to be 19992 ppm AI; in test [2], 19992 ppm AI; in test [3] it was 10000 ppm AI.
For `OCCOc1ccccc1` [Phenoxyethanol, 2-phenoxy-1-ethanol], the “MIC of compound acting alone (CA / CB)” value is recorded as 5000 ppm AI in test [1], 5000 ppm AI in test [2] and 3000 ppm AI in test [3].
